The values below come from ChEMBL document CHEMBL4261612, “Designing dichlorobinaphthoquinone as a prooxidative anticancer agent based on hydrogen peroxide-responsive in situ production of hydroxyl radicals” (Eur J Med Chem, 2018).

A short description of data set [1]: Induction of hydroxyl radicals generation assessed as methyl radical formation by measuring DMPO/CH3 radical level at 50 uM in presence of H2O2 measured after 5 mins by ESR spectral analysis based EPR secondary radical spin-trapping method. In kind it is functional.
A short description of data set [2]: Induction of hydroxyl radicals generation assessed as DMPO/hydroxyl radical level at 50 uM in presence of H2O2 measured after 5 mins by ESR spectral analysis based EPR secondary radical spin-trapping method. It counts as functional.
In data set [3] the test system is L02. The experiment in a line: Cytotoxicity against human LO2 cells assessed as reduction in cell viability after 48 hrs by MTT assay. In kind it is cell-based. The note with it: for IC50: Homo sapiens, L02, 48 h. On the technique in general: Tetrazolium assays rely on reduction of a dye to a coloured formazan, in cell work by metabolically active cells.
Data set [4] deals with A549. The data set is described as follows: Induction of hydrogen peroxide-responsive hydroxyl radicals generation in human A549 cells at 7.5 uM pretreated for 3 hrs followed by 20 uM coumarin-cyanine probe 1 addition and measured after 0.5 hrs by fluorescence imaging assay. In kind it is functional, cell-based.
Data set [5] has as its system A549. The experiment in a line: Induction of hydrogen peroxide-responsive hydroxyl radicals generation in human A549 cells at 7.5 uM pretreated for 3 hrs followed by 2 uM rhodamine nitroxide probe 3 addition and measured after 12 hrs by fluorescence imaging assay. In kind it is functional, cell-based.
The subject of data set [6] is HepG2. The data set is described as follows: Cytotoxicity against human HepG2 cells assessed as reduction in cell viability after 48 hrs by MTT assay. It counts as functional, cell-based. The note with it: HepG2, 48 h.
Data set [7] concerns A549. The data set is described as follows: Cytotoxicity against human A549 cells assessed as reduction in cell viability after 48 hrs by MTT assay. In kind it is functional, cell-based. The note with it: A549, 48 h.
Data set [8] deals with A549. The data set is described as follows: Induction of hydrogen peroxide-responsive hydroxyl radicals generation in human A549 cells at 7.5 uM pretreated for 3 hrs followed by 20 uM coumarin-cyanine probe 1 addition and measured after 0.5 hrs in presence of catalase by fluorescence imaging assay. In kind it is functional, cell-based.
The subject of data set [9] is A549. The data set is described as follows: Cytotoxicity against human A549 cells assessed as reduction in cell viability co-treated with alpha-tocopherol after 48 hrs by MTT assay. It counts as functional, cell-based.
The test system of data set [10] is A549. The data set is described as follows: Cytotoxicity against human A549 cells assessed as induction of hydrogen peroxide-responsive hydroxyl radicals-mediated cell killing by measuring cell viability at 62.5 uM preincubated for 3 hrs followed by 50 uM H2O2 treatment for 45 mins and measured after 48 hrs by MTT assay (reference value: 75.8%). It counts as functional.

Data set [11] concerns L02. The data set is described as follows: Cytotoxicity against human LO2 cells assessed as induction of hydrogen peroxide-responsive hydroxyl radicals-mediated cell killing by measuring cell viability at 62.5 uM preincubated for 3 hrs followed by 100 uM H2O2 treatment for 45 mins and measured after 48 hrs by MTT assay. It counts as cell-based. The note with it: l02, 62.5 µM.

Data set [12] concerns A549. The experiment in a line: Induction of hydrogen peroxide-responsive hydroxyl radicals generation in human A549 cells at 2.5 to 7.5 uM pretreated for 3 hrs followed by 2 uM rhodamine nitroxide probe 3 addition and measured after 12 hrs by fluorescence imaging assay. In kind it is functional, cell-based.
Data set [13] has as its system A549. The data set is described as follows: Induction of hydrogen peroxide-responsive hydroxyl radicals generation in human A549 cells at 2.5 to 7.5 uM pretreated for 3 hrs followed by 20 uM coumarin-cyanine probe 1 addition and measured after 0.5 hrs by fluorescence imaging assay. It counts as functional, cell-based.
Data set [14] has as its system L02. The experiment in a line: Induction of hydrogen peroxide-responsive hydroxyl radicals generation in human LO2 cells at 7.5 uM pretreated for 3 hrs followed by 20 uM coumarin-cyanine probe 1 addition and measured after 0.5 hrs in presence of catalase by fluorescence imaging assay. It counts as cell-based. The following applies: l02, 0.5 h.

The source made the active and inactive calls. The calls are words filed in the database; no cut-off is given here.

In general, IC50 refers to the concentration that inhibits the measured activity by half. With `O=C1C=C(C2=CC(=O)c3ccccc3C2=O)C(=O)c2ccccc21`, the outcome in [1], in data set [2], in [4] and in [5] was inactive. In addition, the IC50 in data set [3], in data set [6] and in [7] was > 10 µM in each case.
Regarding `O=C1C(O)=C(C2=C(Cl)C(=O)c3ccccc3C2=O)C(=O)c2ccccc21`, the result in data set [1], in data set [2], in data set [4] and in data set [5] was Active. Further, the IC50 in data set [3] is > 10 µM; in [6] it was 4.59 µM; in data set [7], 4.25 µM.
For the compound `O=C1C(Cl)=C(C2=C(Cl)C(=O)c3ccccc3C2=O)C(=O)c2ccccc21`, the outcome in data set [1], in [2], in [9], in data set [12] and in [13] was Active. The outcome in data set [8] was inactive. For the same compound, the IC50 in data set [3] was > 10 µM; in data set [6], 2.29 µM; in data set [7], 2.14 µM. Also, the Activity result in data set [3] (human, l02, 48 h) was “Non-Toxic”; in data set [10], 52.6%; in data set [11], “Non-Toxic”; in data set [14], “Non-Toxic”.
